For one experiment, the target named is T1, JAK3 (Homo sapiens, UniProt P52333).
T1 construct: endogenous in cells; host or cells: mixed Molt4/Ramos lysate (1:2)
T1 sequence (P52333 1-1124): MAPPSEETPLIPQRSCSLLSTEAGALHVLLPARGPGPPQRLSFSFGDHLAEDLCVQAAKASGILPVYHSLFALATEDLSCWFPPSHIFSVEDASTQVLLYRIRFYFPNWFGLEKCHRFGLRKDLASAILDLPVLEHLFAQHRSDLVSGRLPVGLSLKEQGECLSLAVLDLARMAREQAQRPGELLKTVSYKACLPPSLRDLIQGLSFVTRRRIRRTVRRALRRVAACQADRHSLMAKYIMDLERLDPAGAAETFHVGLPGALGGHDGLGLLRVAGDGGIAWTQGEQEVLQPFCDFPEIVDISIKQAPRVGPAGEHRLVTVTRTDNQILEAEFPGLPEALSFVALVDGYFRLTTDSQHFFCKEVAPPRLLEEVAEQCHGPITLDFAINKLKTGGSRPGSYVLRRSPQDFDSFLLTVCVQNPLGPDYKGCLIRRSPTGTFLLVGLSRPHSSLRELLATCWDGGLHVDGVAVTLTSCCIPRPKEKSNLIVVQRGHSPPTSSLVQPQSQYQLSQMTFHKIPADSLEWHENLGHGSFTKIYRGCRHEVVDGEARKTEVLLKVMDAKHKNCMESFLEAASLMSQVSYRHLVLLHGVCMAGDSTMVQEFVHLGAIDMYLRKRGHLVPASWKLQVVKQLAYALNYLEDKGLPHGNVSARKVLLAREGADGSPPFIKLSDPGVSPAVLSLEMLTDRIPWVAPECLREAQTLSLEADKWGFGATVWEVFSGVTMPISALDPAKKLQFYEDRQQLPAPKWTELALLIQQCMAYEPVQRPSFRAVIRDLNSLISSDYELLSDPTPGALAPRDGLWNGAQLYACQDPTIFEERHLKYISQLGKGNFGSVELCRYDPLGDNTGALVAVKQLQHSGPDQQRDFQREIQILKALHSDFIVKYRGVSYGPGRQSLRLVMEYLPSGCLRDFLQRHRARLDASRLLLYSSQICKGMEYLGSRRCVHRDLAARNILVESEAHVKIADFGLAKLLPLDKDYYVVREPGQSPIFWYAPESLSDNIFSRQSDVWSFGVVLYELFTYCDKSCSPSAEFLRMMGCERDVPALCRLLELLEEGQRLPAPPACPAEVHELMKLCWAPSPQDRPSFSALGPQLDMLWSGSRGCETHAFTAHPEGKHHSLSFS
The experiment is described as follows: Kinobeads assay, JAK3. The class given is binding. The note with it: mixed Molt4/Ramos lysate, read-out: Inhibition values (IC50) JAK3. The method, then:
(§1) The compounds of the present invention as described in the previous examples were tested in a Kinobeads™ assay as described for ZAP-70 (WO-A 2007/137867). Briefly, test compounds (at various concentrations) and the affinity matrix with the immobilized aminopyrido-pyrimidine ligand 24 were added to cell lysate aliquots and allowed to bind to the proteins in the lysate sample. After the incubation time the beads with captured proteins were separated from the lysate. Bound proteins were then eluted and the presence of JAK2 and JAK3 was detected and quantified using specific antibodies in a dot blot procedure and the Odyssey infrared detection system. Dose response curves for individual kinases were generated and IC50 values calculated. Kinobeads™ assays for ZAP-70 (WO-A 2007/137867) and for kinase selectivity profiling (WO-A 2006/134056) have been previously described.
(§2) The affinity matrix was washed two times with 15 mL of 1×DP buffer containing 0.2% NP40 (IGEPAL® CA-630, Sigma, #I3021) and then resuspended in 1×DP buffer containing 0.2% NP40 (3% beads slurry).
(§3) 5×DP buffer 250 mM Tris-HCl pH 7.4, 25% Glycerol, 7.5 mM MgCl2, 750 mM NaCl, 5 mM Na3VO4; filter the 5×DP buffer through a 0.22 μm filter and store in aliquots at −80° C. The 5×DP buffer is diluted with H2O to 1×DP buffer containing 1 mM DTT and 25 mM NaF.
(§4) Stock solutions of test compounds were prepared in DMSO. In a 96 well plate 30 μL solution of diluted test compounds at 5 mM in DMSO were prepared. Starting with this solution a 1:3 dilution series (9 steps) was prepared. For control experiments (no test compound) a buffer containing 2% DMSO was used.
(§5) Molt4 cells (ATCC catalogue number CRL-1582) and Ramos cells (ATCC catalogue number CRL-1596) were grown in 1 L Spinner flasks (Integra Biosciences, #182101) in suspension in RPMI 1640 medium (Invitrogen, #21875-034) supplemented with 10% Fetal Bovine Serum (Invitrogen) at a density between 0.15×106 and 1.2×10^6 cells/mL. Cells were harvested by centrifugation, washed once with 1×PBS buffer (Invitrogen, #14190-094) and cell pellets were frozen in liquid nitrogen and subsequently stored at −80° C. Cells were homogenized in a Potter S homogenizer in lysis buffer: 50 mM Tris-HCl, 0.8% NP40, 5% glycerol, 150 mM NaCl, 1.5 mM MgCl2, 25 mM NaF, 1 mM sodium vanadate, 1 mM DTT, pH 7.5. One complete EDTA-free tablet (protease inhibitor cocktail, Roche Diagnostics, 1873580) per 25 mL buffer was added. The material was dounced 10 times using a mechanized POTTER S, transferred to 50 mL falcon tubes, incubated for 30 minutes on ice and spun down for 10 minutes at 20,000 g at 4° C. (10,000 rpm in Sorvall SLA600, precooled). The supernatant was transferred to an ultracentrifuge (UZ)-polycarbonate tube (Beckmann, 355654) and spun for 1 hour at 100,000 g at 4° C. (33.500 rpm in Ti50.2, precooled). The supernatant was transferred again to a fresh 50 mL falcon tube, the protein concentration was determined by a Bradford assay (BioRad) and samples containing 50 mg of protein per aliquot were prepared. The samples were immediately used for experiments or frozen in liquid nitrogen and stored frozen at −80° C.
(§6) Cell lysate (approximately 50 mg protein per plate) was thawed in a water bath at room temperature and then stored on ice. To the thawed cell lysate 1×DP 0.8% NP40 buffer containing protease inhibitors (1 tablet for 25 mL buffer; EDTA-free protease inhibitor cocktail; Roche Diagnostics 1873580) was added in order to reach a final protein concentration of 10 mg/mL total protein. The diluted cell lysate was stored on ice. Mixed Molt4/Ramos lysate was prepared by combining one volume of Molt4 lysate and two volumes of Ramos lysate (ratio 1:2).
(§7) To a 96 well filter plate (Multiscreen HTS, BV Filter Plates, Millipore #MSBVN1250) were added per well: 100 μL affinity matrix (3% beads slurry), 3 μL of compound solution, and 50 μL of diluted lysate. […]

The target in a further experiment is T2, JAK2 (Homo sapiens, UniProt O60674).
T2 construct: endogenous in cells; host or cells: mixed Molt4/Ramos lysate (1:2)
Description: Kinobeads assay, JAK2. The class given is binding. Conditions: mixed Molt4/Ramos lysate, read-out: Inhibition values (IC50) JAK2. How it is done:
as §1, §2, §3, §4, §5, §6, §7

pIC50: −log10 of the molar value.

T2 sequence (O60674 whole entry): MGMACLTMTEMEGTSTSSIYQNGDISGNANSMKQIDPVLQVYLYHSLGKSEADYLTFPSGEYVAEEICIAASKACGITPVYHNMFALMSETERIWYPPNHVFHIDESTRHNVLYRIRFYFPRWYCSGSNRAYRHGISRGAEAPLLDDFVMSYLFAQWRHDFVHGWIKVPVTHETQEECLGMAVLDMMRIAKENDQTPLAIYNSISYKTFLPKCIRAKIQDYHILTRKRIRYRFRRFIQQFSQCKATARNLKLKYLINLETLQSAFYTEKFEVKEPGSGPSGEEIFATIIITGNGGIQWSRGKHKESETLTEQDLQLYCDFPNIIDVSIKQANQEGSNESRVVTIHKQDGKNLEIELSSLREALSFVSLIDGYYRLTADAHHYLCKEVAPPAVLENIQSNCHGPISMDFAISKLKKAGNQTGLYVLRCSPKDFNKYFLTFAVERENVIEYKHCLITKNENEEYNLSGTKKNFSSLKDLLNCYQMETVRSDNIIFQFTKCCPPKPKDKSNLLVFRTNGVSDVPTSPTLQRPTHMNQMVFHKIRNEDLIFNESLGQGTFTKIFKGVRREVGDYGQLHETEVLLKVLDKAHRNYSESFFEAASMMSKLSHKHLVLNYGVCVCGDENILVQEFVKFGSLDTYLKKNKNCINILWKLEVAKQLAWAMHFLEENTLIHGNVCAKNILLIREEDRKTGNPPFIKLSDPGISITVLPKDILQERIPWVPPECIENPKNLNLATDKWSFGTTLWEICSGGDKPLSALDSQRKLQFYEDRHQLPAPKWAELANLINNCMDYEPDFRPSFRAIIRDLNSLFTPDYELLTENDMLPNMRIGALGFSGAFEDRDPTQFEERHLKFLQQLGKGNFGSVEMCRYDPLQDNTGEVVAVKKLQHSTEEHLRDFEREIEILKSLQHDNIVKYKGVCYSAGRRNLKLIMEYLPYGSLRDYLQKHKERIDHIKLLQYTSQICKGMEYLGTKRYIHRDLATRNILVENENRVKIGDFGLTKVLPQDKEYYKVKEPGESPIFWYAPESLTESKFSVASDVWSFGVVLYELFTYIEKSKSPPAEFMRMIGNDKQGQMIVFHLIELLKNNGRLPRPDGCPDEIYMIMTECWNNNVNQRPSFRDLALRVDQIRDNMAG

Consider `CNC(=O)Cn1cc(Nc2ncc3cnn(Cc4cccc(N5CCOCC5)c4)c3n2)cn1` [Example 12, N-Methyl-2-(4-((1-(3-morpholinobenzyl)-1H-pyrazolo[3,4-d]pyrimidin-6-yl)amino)-1H-pyrazol-1-yl)acetamide], for which the results for the pIC50 on JAK3 and on JAK2 were above 7.00 and at most 5.00, respectively.

Regarding `OCCn1cc(Nc2ncc3cnn(Cc4cccc(N5CCOCC5)c4)c3n2)cn1` [Example 5, 2-(4-((1-(3-Morpholinobenzyl)-1H-pyrazolo[3,4-d]pyrimidin-6-yl)amino)-1H-pyrazol-1-yl)ethanol], the negative-log IC50 (pIC50) (in general, −log10 of the IC50, conventionally taken in molar units) was above 7.00 at JAK3 and at most 5.00 at JAK2.

As to `Cn1cc(Nc2ncc3cnn(Cc4cccc(N5CCS(=O)(=O)CC5)c4)c3n2)cn1` [Example 25, 4-(3-((6-((1-Methyl-1H-pyrazol-4-yl)amino)-1H-pyrazolo[3,4-d]pyrimidin-1-yl)methyl)phenyl)thiomorpholine 1,1-dioxide], the negative logarithm of the IC50 (pIC50) at JAK3 was above 7.00; on JAK2, at most 5.00.

Turning to `Cn1cc(-c2cccc(Cn3ncc4cnc(Nc5cnn(CCO)c5)nc43)c2F)cn1` [Example 124, 2-(4-((1-(2-fluoro-3-(1-methyl-1H-pyrazol-4-yl)benzyl)-1H-pyrazolo[3,4-d]pyrimidin-6-yl)amino)-1H-pyrazol-1-yl)ethanol], the negative-log IC50 (pIC50) at JAK3 was above 7.00; on JAK2, 5.00 to 6.00.

In the case of `Cn1cc(Nc2ncc3cnn(Cc4cccc(N5CCNCC5=O)c4)c3n2)cn1` [Example 36, 1-(3-((6-((1-Methyl-1H-pyrazol-4-yl)amino)-1H-pyrazolo[3,4-d]pyrimidin-1-yl)methyl)phenyl)piperazin-2-one], the values for the pIC50 on JAK3 and at JAK2 were above 7.00 and at most 5.00, respectively.

Turning to `CNCCCn1cc(Nc2ncc3cnn(Cc4cc(F)cc(N5CCOCC5=O)c4)c3n2)cn1` [Example 99, 4-(3-fluoro-5-((6-((1-(3-(methylamino)propyl)-1H-pyrazol-4-yl)amino)-1H-pyrazolo[3,4-d]pyrimidin-1-yl)methyl)phenyl)morpholin-3-one], the pIC50 on JAK3 is above 7.00; on JAK2 it was 5.00 to 6.00.

Regarding `Cn1cc(-c2cccc(Cn3ncc4cnc(Nc5cnn(CCO)c5)nc43)c2)cn1` [Example 122, 2-(4-((1-(3-(1-methyl-1H-pyrazol-4-yl)benzyl)-1H-pyrazolo[3,4-d]pyrimidin-6-yl)amino)-1H-pyrazol-1-yl)ethanol], the figures for the negative-log IC50 (pIC50) on JAK3 and at JAK2 were above 7.00 and 5.00 to 6.00, respectively.

Take `CN(C)CC(F)Cn1cc(Nc2ncc3cnn(Cc4cc(F)cc(N5CCOCC5=O)c4)c3n2)cn1` (centres unmarked) [Example 97, 4-(3-((6-((1-(3-(dimethylamino)-2-fluoropropyl)-1H-pyrazol-4-yl)amino)-1H-pyrazolo[3,4-d]pyrimidin-1-yl)methyl)-5-fluorophenyl)morpholin-3-one]: the values for the negative-log IC50 (pIC50) at JAK3 and at JAK2 were above 7.00 and 5.00 to 6.00, respectively.

For the compound `CCOC(=O)C1CCCN(c2cccc(Cn3ncc4cnc(Nc5cnn(C)c5)nc43)c2)C1` (centres unmarked) [Example 13, Ethyl 1-(3-((6-((1-methyl-1H-pyrazol-4-yl)amino)-1H-pyrazolo[3,4-d]pyrimidin-1-yl)methyl)phenyl)piperidine-3-carboxylate], the pIC50 at JAK3 was 6.00 to 7.00; on JAK2 it was at most 5.00.

Turning to `CC(CN(C)C)Cn1cc(Nc2ncc3cnn(Cc4cccc(N5CCOCC5)c4)c3n2)cn1` (centres unmarked) [Example 32, N-(1-(3-(Dimethylamino)-2-methylpropyl)-1H-pyrazol-4-yl)-1-(3-morpholinobenzyl)-1H-pyrazolo[3,4-d]pyrimidin-6-amine], the negative logarithm of the IC50 (pIC50) is above 7.00 on JAK3 and at most 5.00 at JAK2.

Take `OCCn1cc(Nc2ncc3cnn(Cc4cc(F)cc(N5CCNCC5)c4F)c3n2)cn1` [Example 96, 2-(4-((1-(2,5-difluoro-3-(piperazin-1-yl)benzyl)-1H-pyrazolo[3,4-d]pyrimidin-6-yl)amino)-1H-pyrazol-1-yl)ethanol]: the pIC50 on JAK3 is above 7.00; at JAK2, 6.00 to 7.00.

Consider `Cn1cc(Nc2ncc3cnn(Cc4cccc(NC5COC5)c4)c3n2)cn1` [Example 114, N-(1-methyl-1H-pyrazol-4-yl)-1-(3-(oxetan-3-ylamino)benzyl)-1H-pyrazolo[3,4-d]pyrimidin-6-amine], for which the negative-log IC50 (pIC50) was above 7.00 on JAK3 and 5.00 to 6.00 at JAK2.

For the compound `Cn1cc(Nc2ncc3cnn(Cc4cc(F)cc(N5CCNCC5)c4F)c3n2)cn1` [Example 95, 1-(2,5-difluoro-3-(piperazin-1-yl)benzyl)-N-(1-methyl-1H-pyrazol-4-yl)-1H-pyrazolo[3,4-d]pyrimidin-6-amine], the pIC50 on JAK3 is above 7.00; on JAK2, 6.00 to 7.00.

Take `Cn1cc(Nc2ncc3cnn(Cc4cccc(N5CCOCC5=O)c4F)c3n2)cn1` [Example 40, 4-(2-Fluoro-3-((6-((1-methyl-1H-pyrazol-4-yl)amino)-1H-pyrazolo[3,4-d]pyrimidin-1-yl)methyl)phenyl)morpholin-3-one]: the pIC50 on JAK3 was above 7.00; on JAK2, 5.00 to 6.00.

For `CN(C)CCCn1cc(Nc2ncc3cnn(Cc4cccc(N5CCOCC5=O)c4)c3n2)cn1` [Example 28, 4-(3-((6-((1-(3-(Dimethylamino)propyl)-1H-pyrazol-4-yl)amino)-1H-pyrazolo[3,4-d]pyrimidin-1-yl)methyl)phenyl)morpholin-3-one], the values for the pIC50 at JAK3 and on JAK2 were above 7.00 and at most 5.00, respectively.

For `Cn1cc(Nc2ncc3cnn(Cc4c(F)ccc(N5CCOCC5)c4F)c3n2)cn1` [Example 38, 1-(2,6-Difluoro-3-morpholinobenzyl)-N-(1-methyl-1H-pyrazol-4-yl)-1H-pyrazolo[3,4-d]pyrimidin-6-amine], the negative-log IC50 (pIC50) is above 7.00 on JAK3 and at most 5.00 on JAK2.

Values taken from patent publication US9040545B2, “Heterocyclyl pyrazolopyrimidine analogues as selective JAK inhibitors” (Cellzome Limited, priority 2010, dated 2015).
